This is an account of results in EPA's CvTdb concentration-time database.

Data set [1] deals with Rat. Nature of the data set: concentration in plasma after dosing. The conditions noted are these: dosed: Wyeth-14643, 2.0 mg/kg, oral, Male, Sprague-Dawley.
For data set [2], the system named is Rat. Nature of the data set: concentration in plasma after dosing. The conditions noted are these: dosed: Wyeth-14643, 1.0 mg/kg, oral, Male, Sprague-Dawley.
The subject of data set [3] is Rat. Nature of the data set: concentration in plasma after dosing. The conditions noted are these: dosed: Wyeth-14643, 5.0 mg/kg, oral, Male, Sprague-Dawley.
Data set [4] deals with Rat. Nature of the data set: concentration in plasma after dosing. The conditions noted are these: dosed: Wyeth-14643, 5.0 mg/kg, oral, Male, Sprague-Dawley. The source holds these as a separate data set.
In data set [5] the test system is Rat. Nature of the data set: concentration in plasma after dosing. The note with it: 2 h; dosed: Wyeth-14643; 2.0 mg/kg; iv; Male; Sprague-Dawley.
Data set [6] has as its system Rat. Nature of the data set: concentration in plasma after dosing. The note with it: 0.25 h; dosed: Wyeth-14643; 2.0 mg/kg; iv; Male; Sprague-Dawley.
Data set [7] deals with Rat. Nature of the data set: concentration in heart after dosing. The note with it: 3 h; dosed: Bis 2-Chloroethoxy Methane; 20 mg/kg; iv; Female; F344.
For data set [8], the system named is Rat. Nature of the data set: concentration in plasma after dosing. The note with it: 20 min; dosed: Bis 2-Chloroethoxy Methane; 20 mg/kg; iv; Female; F344.
Data set [9] deals with Rat. Nature of the data set: concentration in thymus after dosing. The note with it: 8 h; dosed: Bis 2-Chloroethoxy Methane; 20 mg/kg; iv; Female; Harlan Sprague-Dawley.
Data set [10] has as its system Rat. Nature of the data set: concentration in thymus after dosing. The note with it: 10 min; dosed: Bis 2-Chloroethoxy Methane; 20 mg/kg; iv; Male; F344.
For data set [11], the system named is Rat. Nature of the data set: concentration in thymus after dosing. The note with it: 6 h; dosed: Bis 2-Chloroethoxy Methane; 20 mg/kg; iv; Female; F344.
The subject of data set [12] is Rat. Nature of the data set: concentration in plasma after dosing. The conditions noted are these: dosed: Bis 2-Chloroethoxy Methane, 40 mg/kg, iv, Male, Harlan Sprague Dawley.
Data set [13] concerns Rat. Nature of the data set: concentration in plasma after dosing. The conditions noted are these: 2 h; dosed: Bis 2-Chloroethoxy Methane; 20 mg/kg; iv; Female; F344.
The test system of data set [14] is Rat. Nature of the data set: concentration in thymus after dosing. The conditions noted are these: 3 h; dosed: Bis 2-Chloroethoxy Methane; 20 mg/kg; iv; Male; F344.
Data set [15] deals with Rat. Nature of the data set: concentration in brain after dosing. The conditions noted are these: 6 h; dosed: Fluorotelomer alcohol 8+2; 80 mg/kg; oral; Female; Harlan Sprague Dawley.
In data set [16] the test system is Rat. Nature of the data set: concentration in plasma after dosing. The conditions noted are these: dosed: Fluorotelomer alcohol 8+2, 40 mg/kg, iv, Male, F344.
For data set [17], the system named is Rat. Nature of the data set: concentration in kidney after dosing. The note with it: 3 h; dosed: Fluorotelomer alcohol 8+2; 80 mg/kg; oral; Female; Harlan Sprague Dawley.
The test system of data set [18] is Rat. Nature of the data set: concentration in plasma after dosing. The conditions noted are these: 3 h; dosed: Di-n-butyl phthalate; 100 mg/kg; oral; Male; Sprague-Dawley.
Data set [19] concerns Rat. Nature of the data set: concentration in plasma after dosing. The note with it: 0.5 h; dosed: Di-n-butyl phthalate; 50 mg/kg; oral; Male; Sprague-Dawley.
Data set [20] deals with Rat. Nature of the data set: concentration in kidney after dosing. The conditions noted are these: 864 h; dosed: Perfluorodecanoic acid; 10 mg/kg; oral; Male; Harlan Sprague Dawley.
Data set [21] has as its system Rat. Nature of the data set: concentration in kidney after dosing. The conditions noted are these: 1 h; dosed: Perfluorodecanoic acid; 10 mg/kg; oral; Male; Harlan Sprague Dawley.
The subject of data set [22] is Rat. Nature of the data set: concentration in plasma after dosing. The conditions noted are these: dosed: Perfluorodecanoic acid, 2 mg/kg, oral, Male, Harlan Sprague Dawley.
Data set [23] relates to Rat. Nature of the data set: concentration in plasma after dosing. The note with it: 2520 h; dosed: Perfluorodecanoic acid; 2 mg/kg; iv; Male; F344.
Data set [24] deals with Rat. Nature of the data set: concentration in kidney after dosing. The note with it: 1 h; dosed: Perfluorodecanoic acid; 10 mg/kg; oral; Female; Harlan Sprague Dawley.
The test system of data set [25] is Rat. Nature of the data set: concentration in plasma after dosing. The note with it: 22 h; dosed: Primidone; 130 mg/kg; oral; Female; F344.
In data set [26] the test system is Rat. Nature of the data set: concentration in plasma after dosing. The conditions noted are these: 12 h; dosed: Primidone; 80 mg/kg; oral; Female; F344.
The test system of data set [27] is Rat. Nature of the data set: concentration in liver after dosing. The conditions noted are these: 3 h; dosed: Thiodiglycolic Acid; 20 mg/kg; iv; Male; Harlan Sprague Dawley.
Data set [28] deals with Rat. Nature of the data set: concentration in heart after dosing. The conditions noted are these: 6.667 h; dosed: Thiodiglycolic Acid; 20 mg/kg; iv; Female; Harlan Sprague Dawley.
Data set [29] has as its system Rat. Nature of the data set: concentration in heart after dosing. The note with it: 4 h; dosed: Thiodiglycolic Acid; 20 mg/kg; iv; Male; Harlan Sprague Dawley.
In data set [30] the test system is Rat. Nature of the data set: concentration in liver after dosing. The note with it: 2 h; dosed: Thiodiglycolic Acid; 20 mg/kg; iv; Male; Harlan Sprague Dawley.
Data set [31] concerns Rat. Nature of the data set: concentration in plasma after dosing. The conditions noted are these: 3 h; dosed: Thiodiglycolic Acid; 20 mg/kg; iv; Female; Harlan Sprague Dawley.
Data set [32] relates to Rat. Nature of the data set: concentration in plasma after dosing. The conditions noted are these: 40 min; dosed: Thiodiglycolic Acid; 20 mg/kg; iv; Male; Harlan Sprague Dawley.
Data set [33] has as its system Rat. Nature of the data set: concentration in thymus after dosing. The note with it: 6.667 h; dosed: Thiodiglycolic Acid; 20 mg/kg; iv; Female; Harlan Sprague Dawley.
Data set [34] has as its system Rat. Nature of the data set: concentration in plasma after dosing. The conditions noted are these: dosed: dichloroacetic acid, 40 mg/kg, oral, Female, Harlan Sprague Dawley.
Data set [35] concerns Rat. Nature of the data set: concentration in plasma after dosing. The note with it: dosed: dichloroacetic acid, 10 mg/kg, oral, Male, Harlan Sprague Dawley.
For data set [36], the system named is Rat. Nature of the data set: concentration in plasma after dosing. The conditions noted are these: dosed: dichloroacetic acid, 100 mg/kg, oral, Male, F344.

In the case of `Cc1cccc(Nc2cc(Cl)nc(SCC(=O)O)n2)c1C`, the concentration in plasma in data set [1] (2 h) was 0.656 µg/mL; in data set [1] (7 h), 0.12 µg/mL; in data set [2] (0.25 h), 0.341 µg/mL; in [2] (4 h), 0.214 µg/mL; in [3] (5 min), 1.33 µg/mL; in data set [3] (8 h) it was 0.155 µg/mL. The concentration in plasma in data set [4] (2 h) turned out to be 3.45 µg/mL; in data set [4] (6 h), 0.742 µg/mL; in data set [5] it was 0.67 µg/mL; in data set [6] it was 9.46 µg/mL.

In [7], `ClCCOCOCCCl` [Bis 2-Chloroethoxy Methane] came in with a concentration in heart of 124 ng/g. The concentration in plasma in data set [8] was 4820 ng/mL; in data set [12] (1 h), 4820 ng/mL; in data set [12] (9.667 h), 15.4 ng/mL; in [13], 150 ng/mL. In addition, the concentration in thymus amounted to 13.1 ng/g in data set [9], 45200 ng/g in [10], 32.1 ng/g in data set [11] and 134 ng/g in data set [14].

With `OCCC(F)(F)C(F)(F)C(F)(F)C(F)(F)C(F)(F)C(F)(F)C(F)(F)C(F)(F)F` [Fluorotelomer alcohol 8+2], the concentration in brain in [15] was determined as 1310 ng/g. The concentration in plasma in [16] (0.25 h) worked out at 12700 ng/mL; in [16] (6 h) it was 153 ng/mL. Also, the concentration in kidney in [17] was found to be 5170 ng/g.

Consider `CCCCOC(=O)c1ccccc1C(=O)O` [Mono-n-butyl phthalate], for which the concentration in plasma is 1.19 µg/mL in data set [18] and 20.5 µg/mL in data set [19].

On to `O=C(O)C(F)(F)C(F)(F)C(F)(F)C(F)(F)C(F)(F)C(F)(F)C(F)(F)C(F)(F)C(F)(F)F` [Perfluorodecanoic acid], for which the values for the concentration in kidney in [20], in data set [21] and in [24] were 10600 ng/g, 10800 ng/g and 20600 ng/g, respectively. Moreover, the concentration in plasma in data set [22] (12 h) came out at 7480 ng/mL; in [22] (1200 h), 1470 ng/mL; in [23], 209 ng/mL.

`CCC1(c2ccccc2)C(=O)NC(=O)NC1=O` [Phenobarbital]: the concentration in plasma was determined as 2.49 µg/mL in [25] and 2.26 µg/mL in [26].

Consider `O=C(O)CSCC(=O)O` [Thiodiglycolic Acid], for which the results for the concentration in liver in data set [27] and in [30] were 59900 ng/g and 112000 ng/g, respectively. The results for the concentration in heart in data set [28] and in [29] were 246 ng/g and 527 ng/g, respectively. The concentration in plasma stood at 510 ng/mL in data set [31] and 3090 ng/mL in data set [32]. This compound also registered a concentration in thymus in data set [33] of 391 ng/g.

`O=C(O)C(Cl)Cl` [dichloroacetic acid]: the concentration in plasma was determined as 0.704 µg/mL in data set [34] (2 min); 7.02 µg/mL in [34] (1 h); 0.621 µg/mL in [35] (5 min); 0.137 µg/mL in [35] (40 min); 13.3 µg/mL in data set [36] (0.25 h); 32.8 µg/mL in [36] (6 h).
